From patent publication US9452164B2, “Imidazopyridine derivatives, process for preparation thereof and therapeutic use thereof” (SANOFI, priority 2010, dated 2016)
Where a name gives a salt, the structure may show the parent alone.

Columns and labels:
[1] = tested on: OF1 female mice; test: Model of inflammatory angiogenesis in mice (air pocket granuloma, carmine red dye); format: in vivo; conditions: for % inhibition of the angiogenic parameter (dye content) / % inhibition of the inflammatory parameter (mass of the granuloma): daily oral, mice; for dye content corresponding to the angiogenesis / weight of the granuloma (dry weight of the skin), inflammation part: one week of daily treatment
Method: The model described by Colville-Nash et al., in 1995, makes it possible to study pharmacological agents capable of modulating the occurrence of angiogenesis in an inflammatory context. The model is developed on OF1 female mice (Charles River Laboratories) weighing approximately 25 g, and by groups of 12. The animals are anaesthetized with sodium pentobarbital (60 mg/kg; Sanofi Nutrition Sante animale)) intraperitoneally. An air pocket is created on the back of the mouse by subcutaneous injection of 3 ml of air. After they have awoken, the animals receive a treatment generally by gavage, and receive an injection of 0.5 ml of Freund's adjuvant (Sigma) with 0.1% of croton oil (Sigma) in the pocket. Seven days later, the mice are again anaesthetized and placed on a hot plate at 40° C. One ml of carmine red (Aldrich Chemicals, 5% in 10% of gelatin) is injected into the tail vein. The animals are then placed at 4° C. for 2-3 hours. The skins are then taken and dried for 24 h in an oven at 56° C. The dry tissues are weighed and placed in 1.8 ml of digestion solution (2 mM dithiothreitol, 20 mM Na2HPO4, 1 mM EDTA, 12 U/ml papain) for 24 h. The dye is then dissolved in 0.2 ml of 5M NaOH. The skins are centrifuged at 2000 rpm for 10 min at ambient temperature. The supernatants are filtered through 0.2 μm cellulose acetate membranes. The filtrates are read in a spectrophotometer at 492 nm against a carmine red calibration range. Two parameters are studyed: the dry weight of the granuloma and the amount of dye after digestion of the tissues. The results are expressed as mean values (±sem). The differences between the groups are tested with an ANOVA followed by a Dunnett's test, of which the reference group is the “solvent control” group.
The FGF-R antagonists are evaluated between 1 and 50 mg/kg using methylcellulose/tween (0.6% v/v) as vehicle or any other vehicle which allows the active ingredient to be solubilized. The molecules are administered daily, orally (one or two times a day) by gavage. The antagonists of the present invention are considered to be active as long as they enable a significant reduction in the angiogenic parameter, i.e. a reduction in the amount of carmine red dye in the skins of the animals tested.

[2] = tested on: HUVEC cells stimulated with FGF-2; test: FGF-2-induced in vitro proliferation of HUVEC cells; format: cell-based, human; conditions: HUVEC stimulated with FGF-2, ATP luminescence
Method: To do this, HUVEC human vein endothelial cells (promocell, C-12200) are seeded at a rate of 5000 cells per well of a 96-well plate (Biocoat collagen I cellware, Becton Dickinson 354650) in 100 μl of RPMI 1640 deprivation medium (Invitrogen, 31872-025) supplemented with 0.5% or 1% FCS, 2 mM glutamine, 1× sodium pyruvate (Invitrogen; 11360-039) and 1×NEAA (Invitrogen, 11140-035), overnight at 37° C. in the presence of 5% CO2. The following morning, the medium is suctioned-off and replaced with 50 μl of deprivation medium containing the antagonists at a 2× concentration, to which are added 50 μl of FGF-2 (R&D systems, 133-FB-025; Invitrogen, PHG0026) at 0.2 ng/ml (i.e. 2×). After 48 or 72 h, 100 μl of Cell Titer-GLO™ Luminescent Cell Viability Assay (Promega, G7571) are added for 10 min in order to measure, by means of a luminometer, the amount of ATP present in the cells and which is in relation to the number of cells per well corresponding to the cell proliferation.
The antagonists of the present invention are considered to be active as long as they are capable of inhibiting FGF-2-induced proliferation of HUVEC cells at a dose less than or equal to 300 nM.

[3] = tested on: HUVEC cells stimulated with FGF-2; test: FGF-2-induced in vitro angiogenesis of HUVEC cells; format: cell-based, human; conditions: HUVEC stimulated with FGF-2, 24 h, pseudotubule network length
Method: To do this, matrices composed of matrigel (growth factor reduced matrigel, Becton Dickinson 356230) and collagen (rat tail collagen type I, Becton Dickinson 354236) are deposited, at a rate of 160 μl, into each chamberslide well (Biocoat Cellware collagen, Type I, 8-well culturesides: Becton Dickinson 354630), or 60 μl per well of 96-well plates (Biocoat collagen I cellware, Becton Dickinson 354407). The matrix is prepared by mixing ⅓ of matrigel, 1 mg/ml final concentration of collagen, 0.1N NaOH (0.026× the volume of collagen in μl) and 1×PBS, and the volume is then adjusted with water. The gels are kept at 37° C. for 1 hour so as to allow them to polymerize. […] After 24 hours, the length of the network of microtubules formed was measured using a computer-assisted image analysis system (Imagenia Biocom, Courtaboeuf, France) and the total length of the pseudotubules in each well was determined. The average total length of the microcapillary network was calculated in μm for each condition corresponding to the average of 6 replicates. […]
In this experiment, the molecules are evaluated at 3 and 30 nM on induction of the angiogenesis of HUVEC human cells by FGF-2.

Structure (SMILES): CN(C)CCNC(=O)c1cccc(-c2nc(C(=O)c3ccc4c(c3)c(=O)n(Cc3ccc(F)cc3)c(=O)n4C)n3ccccc23)c1.Cl
- melting point: 247 °C

Structure (SMILES): Cl.Cn1c(=O)n(Cc2ccc(F)cc2)c(=O)c2cc(C(=O)c3nc(-c4cccc(C(=O)OCCN5CCOCC5)c4)c4ccccn34)ccc21
- melting point: 215 °C

Structure (SMILES): Cn1c(=O)n(Cc2ccc(F)cc2)c(=O)c2cc(C(=O)c3nc(-c4cccnc4)c4ccccn34)ccc21 (as salt: hydrochloride) [Compound No. 113, 3-(4-Fluorobenzyl)-1-methyl-6-[(1-pyridin-3-ylimidazo[1,5-a]pyridin-3-yl)carbonyl]quinazoline-2,4(1H,3H)-dione]
- melting point: 267 °C

Structure (SMILES): CCCn1c(=O)[nH]c2ccc(C(=O)c3ncc4ccccn34)cc2c1=O [Compound No. 1, 6-(Imidazo[1,5-a]pyridin-3-ylcarbonyl)-3-propylquinazoline-2,4(1H,3H)-dione]
- melting point: 304 °C

Structure (SMILES): O=C(c1ccc2nc[nH]c(=O)c2c1)c1ncc2ccccn12 [Compound No. 3, 6-(Imidazo[1,5-a]pyridin-3-ylcarbonyl)quinazolin-4(3H)-one]
- melting point: 289 °C

Structure (SMILES): CCCn1c(=O)[nH]c2ccc(C(=O)c3ncc4ccc(C(=O)O)cn34)cc2c1=O [Compound No. 8, 3-[(2,4-Dioxo-3-propyl-1,2,3,4-tetrahydroquinazolin-6-yl)carbonyl]imidazo[1,5-a]pyridine-6-carboxylic acid]
- melting point: 384 °C

Structure (SMILES): CCCn1c(=O)[nH]c2ccc(C(=O)c3nc(-c4cccc(C(=O)[O-])c4)c4ccccn34)cc2c1=O.[Na+] [Compound No. 10, Sodium Salt of 3-{3-[(2,4-dioxo-3-propyl-1,2,3,4-tetrahydroquinazolin-6-yl)carbonyl]imidazo[1,5-a]pyridin-1-yl}benzoic acid]
- % inhibition of the angiogenic parameter (dye content) ([1]; 30 mg/kg): 19%
- % inhibition of the inflammatory parameter (mass of the granuloma) ([1]; 30 mg/kg): 19%

Structure (SMILES): CCCn1c(=O)[nH]c2ccc(C(=O)c3nc(NS(C)(=O)=O)c4ccccn34)cc2c1=O [Compound No. 13, N-{3-[(2,4-Dioxo-3-propyl-1,2,3,4-tetrahydroquinazolin-6-yl)carbonyl]imidazo[1,5-a]pyridin-1-yl}methanesulphonamide]
- melting point: 334 °C

Structure (SMILES): CCCn1c(=O)[nH]c2ccc(C(=O)c3nc(-c4cccc(C(N)=O)c4)c4ccccn34)cc2c1=O [Compound No. 29, 3-{3-[(2,4-Dioxo-3-propyl-1,2,3,4-tetrahydroquinazolin-6-yl)carbonyl]imidazo[1,5-a]pyridin-1-yl}benzamide]
- melting point: 345 to 346 °C

Structure (SMILES): CCCn1c(=O)[nH]c2ccc(C(=O)c3nc(-c4cccc(-c5nc(C)no5)c4)c4ccccn34)cc2c1=O [Compound No. 36, 6-({1-[3-(3-Methyl-1,2,4-oxadiazol-5-yl)phenyl]imidazo[1,5-a]pyridin-3-yl}carbonyl)-3-propylquinazoline-2,4(1H,3H)-dione]
- melting point: 276 to 277 °C

Structure (SMILES): Cn1c(=O)n(Cc2ccc(F)cc2)c(=O)c2cc(C(=O)c3nc(-c4cccc(C(=O)[O-])c4)c4ccccn34)ccc21.[Na+] [Compound No. 49, Sodium Salt of 3-(3-{[3-(4-fluorobenzyl)-1-methyl-2,4-dioxo-1,2,3,4-tetrahydroquinazolin-6-yl]carbonyl}imidazo[1,5-a]pyridin-1-yl)benzoic acid]
- % inhibition of the angiogenic parameter (dye content) ([1]; 10 mg/kg, one week): 46%
- % inhibition of the inflammatory parameter (mass of the granuloma) ([1]; 10 mg/kg, one week): 40%
- dye content corresponding to the angiogenesis ([1]; 10 mg/kg): significantly reduce
- weight of the granuloma (dry weight of the skin), inflammation part ([1]; 10 mg/kg): significantly reduce
- inhibition of proliferation as percentage of the control ([2]; 30 nM): 9%
- inhibition of proliferation as percentage of the control ([2]; 300 nM): 29%

Structure (SMILES): CCCn1c(C)nc2ccc(C(=O)c3nc(-c4cccc(C(=O)O)c4)c4ccccn34)cc2c1=O [Compound No. 53, 3-{3-[(2-Methyl-4-oxo-3-propyl-3,4-dihydroquinazolin-6-yl)carbonyl]imidazo[1,5-a]pyridin-1-yl}benzoic acid]
- melting point: 305 °C

Structure (SMILES): CCCn1c(C)nc2ccc(C(=O)c3nc(-c4cccc(C(N)=O)c4)c4ccccn34)cc2c1=O [Compound No. 55, 3-{3-[(2-Methyl-4-oxo-3-propyl-3,4-dihydroquinazolin-6-yl)carbonyl]imidazo[1,5-a]pyridin-1-yl}benzamide]
- melting point: 238 °C

Structure (SMILES): CCCn1c(=O)n(Cc2ccc(F)cc2)c(=O)c2cc(C(=O)c3nc(-c4cccc(C(=O)[O-])c4)c4ccccn34)ccc21.[Na+] [Compound No. 72, Sodium Salt of 3-(3-{[3-(4-fluorobenzyl)-1-propyl-2,4-dioxo-1,2,3,4-tetrahydroquinazolin-6-yl]carbonyl}imidazo[1,5-a]pyridin-1-yl)benzoic acid]
- inhibition of angiogenesis as a percentage of the control ([3]; 3 nM): 36%
- inhibition of angiogenesis as a percentage of the control ([3]; 30 nM): 24%
- % inhibition of the angiogenic parameter (dye content) ([1]; 10 mg/kg, one week): 43%
- % inhibition of the inflammatory parameter (mass of the granuloma) ([1]; 10 mg/kg, one week): 38%
- dye content corresponding to the angiogenesis ([1]; 10 mg/kg): significantly reduce
- weight of the granuloma (dry weight of the skin), inflammation part ([1]; 10 mg/kg): significantly reduce
- inhibition of proliferation as percentage of the control ([2]; 30 nM): 38%
- inhibition of proliferation as percentage of the control ([2]; 300 nM): 55%

Structure (SMILES): CCCn1c(=O)n(CCOc2ccc(F)cc2)c(=O)c2cc(C(=O)c3nc(-c4cccc(C(=O)[O-])c4)c4ccccn34)ccc21.[Na+] [Compound No. 223, Sodium Salt of 3-[3-({3-[2-(4-fluorophenoxy)ethyl]-1-propyl-2,4-dioxo-1,2,3,4-tetrahydroquinazolin-6-yl}carbonyl)imidazo[1,5-a]pyridin-1-yl]benzoic acid]
- % inhibition of the angiogenic parameter (dye content) ([1]; 10 mg/kg, one week): 43%
- % inhibition of the inflammatory parameter (mass of the granuloma) ([1]; 10 mg/kg, one week): 25%
